From ChEMBL document CHEMBL1201862, “PubChem BioAssay data set” (2004)
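Compound exposure: 48 hours, 5 concentrations, 96-well plates. Here, GI50 denotes the concentration required for 50% inhibition of growth.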 The source made the active and inactive calls. Cut-off read from the data, not from the text of the source: active = GI50 up to about 1.1 µM and inactive = higher. Where a SMILES comes first, the peptide text is derived from it. The star is where a group is joined. Fmoc = O=C(OCC1c2ccccc2-c2ccccc21)*; Boc = CC(C)(C)OC(=O)*

Key:
Assay in all cases: growth of human tumour cells (NCI), 48 h
[1] = tested on: 786-0
[2] = tested on: A549
[3] = tested on: ACHN
[4] = tested on: BT-549
[5] = tested on: CAKI-1
[6] = tested on: CCRF-CEM
[7] = tested on: COLO 205
[8] = tested on: DU-145
[9] = tested on: EKVX
[10] = tested on: HCC 2998
[11] = tested on: HCT-116
[12] = tested on: HCT-15
[13] = tested on: HL-60
[14] = tested on: HOP-62
[15] = tested on: HOP-92
[16] = tested on: HT-29
[17] = tested on: Hs-578T
[18] = tested on: IGROV-1
[19] = tested on: K562
[20] = tested on: KM12
[21] = tested on: LOX IMVI
[22] = tested on: M14
[23] = tested on: MCF7
[24] = tested on: MDA-MB-231
[25] = tested on: MDA-MB-435
[26] = tested on: MDA-N
[27] = tested on: MOLT-4
[28] = tested on: Malme-3M
[29] = tested on: NCI-H226
[30] = tested on: NCI-H23
[31] = tested on: NCI-H460
[32] = tested on: NCI/ADR-RES
[33] = tested on: OVCAR-3
[34] = tested on: OVCAR-4
[35] = tested on: OVCAR-5
[36] = tested on: OVCAR-8
[37] = tested on: PC-3
[38] = tested on: RPMI-8226
[39] = tested on: RXF 393
[40] = tested on: SF-268
[41] = tested on: SF-295
[42] = tested on: SF-539
[43] = tested on: SK-MEL-28
[44] = tested on: SK-MEL-2
[45] = tested on: SK-MEL-5
[46] = tested on: SK-OV-3
[47] = tested on: SN12C
[48] = tested on: SNB-19
[49] = tested on: SNB-75
[50] = tested on: SR
[51] = tested on: SW-620
[52] = tested on: T47D
[53] = tested on: TK-10
[54] = tested on: U-251
[55] = tested on: UACC-257
[56] = tested on: UACC-62
[57] = tested on: UO-31
[58] = tested on: NCI-H522

Structure (SMILES): CC(C)(C)OC(=O)NCCCCC(NC(=O)C(Cc1c[nH]c2ccccc12)NC(=O)OCC1c2ccccc2-c2ccccc21)C(=O)O (stereo not given) (Fmoc-Trp-Lys(Boc)-OH; configuration not given here)
- GI50 [1]: 80 µM (inactive)
- GI50 [2]: > 100 µM (inactive)
- GI50 [3]: > 100 µM (inactive)
- GI50 [4]: 35.6 µM (inactive)
- GI50 [5]: 17.1 µM (inactive)
- GI50 [6]: 24.7 µM (inactive)
- GI50 [7]: 64.7 µM (inactive)
- GI50 [8]: 76.4 µM (inactive)
- GI50 [9]: > 100 µM (inactive)
- GI50 [10]: 40.6 µM (inactive)
- GI50 [11]: 32 µM (inactive)
- GI50 [12]: > 100 µM
- GI50 [13]: 15.5 µM (inactive)
- GI50 [14]: 39.5 µM (inactive)
- GI50 [15]: 23.8 µM (inactive)
- GI50 [16]: 40.5 µM (inactive)
- GI50 [17]: 30.3 µM (inactive)
- GI50 [18]: 52.2 µM (inactive)
- GI50 [19]: 18.8 µM (inactive)
- GI50 [20]: 47.8 µM (inactive)
- GI50 [21]: 21.6 µM (inactive)
- GI50 [22]: 77.3 µM (inactive)
- GI50 [23]: 22.9 µM (inactive)
- GI50 [24]: 27.5 µM (inactive)
- GI50 [25]: 49.5 µM (inactive)
- GI50 [26]: 35.9 µM (inactive)
- GI50 [27]: 19.8 µM (inactive)
- GI50 [28]: 47.8 µM (inactive)
- GI50 [29]: 43.7 µM (inactive)
- GI50 [30]: 31 µM (inactive)
- GI50 [31]: 34.7 µM (inactive)
- GI50 [32]: > 100 µM (inactive)
- GI50 [33]: 18.2 µM (inactive)
- GI50 [34]: 33.7 µM (inactive)
- GI50 [35]: > 100 µM (inactive)
- GI50 [36]: 44.4 µM (inactive)
- GI50 [37]: 34.8 µM (inactive)
- GI50 [38]: 25 µM (inactive)
- GI50 [39]: 59.4 µM (inactive)
- GI50 [40]: 32.5 µM (inactive)
- GI50 [41]: 62.7 µM (inactive)
- GI50 [42]: 42.3 µM (inactive)
- GI50 [43]: 26.3 µM (inactive)
- GI50 [44]: 23.1 µM (inactive)
- GI50 [45]: 90.2 µM (inactive)
- GI50 [46]: 5 µM (inactive)
- GI50 [47]: 52.2 µM (inactive)
- GI50 [48]: 27.3 µM (inactive)
- GI50 [49]: 55 µM (inactive)
- GI50 [50]: 21.9 µM (inactive)
- GI50 [51]: 48.3 µM (inactive)
- GI50 [52]: 54.7 µM (inactive)
- GI50 [53]: > 100 µM (inactive)
- GI50 [54]: 17.1 µM (inactive)
- GI50 [55]: 79.3 µM (inactive)
- GI50 [56]: 20.9 µM (inactive)
- GI50 [57]: 68.7 µM (inactive)

Structure (SMILES): NC(Cc1ccccc1CP(=O)(O)O)C(=O)O (stereo not given)
- GI50 [2]: > 100 µM (inactive)
- GI50 [3]: > 100 µM (inactive)
- GI50 [4]: > 100 µM (inactive)
- GI50 [5]: > 100 µM (inactive)
- GI50 [6]: > 100 µM (inactive)
- GI50 [7]: > 100 µM (inactive)
- GI50 [8]: > 100 µM (inactive)
- GI50 [9]: > 100 µM (inactive)
- GI50 [10]: > 100 µM (inactive)
- GI50 [11]: > 100 µM (inactive)
- GI50 [12]: > 100 µM
- GI50 [13]: > 100 µM (inactive)
- GI50 [15]: > 100 µM (inactive)
- GI50 [16]: > 100 µM (inactive)
- GI50 [17]: > 100 µM (inactive)
- GI50 [18]: > 100 µM (inactive)
- GI50 [19]: > 100 µM (inactive)
- GI50 [20]: > 100 µM (inactive)
- GI50 [21]: > 100 µM (inactive)
- GI50 [22]: > 100 µM (inactive)
- GI50 [23]: > 100 µM (inactive)
- GI50 [24]: > 100 µM (inactive)
- GI50 [25]: > 100 µM (inactive)
- GI50 [26]: > 100 µM (inactive)
- GI50 [27]: > 100 µM (inactive)
- GI50 [30]: > 100 µM (inactive)
- GI50 [31]: > 100 µM (inactive)
- GI50 [58]: > 100 µM (inactive)
- GI50 [32]: > 100 µM (inactive)
- GI50 [33]: > 100 µM (inactive)
- GI50 [34]: > 100 µM (inactive)
- GI50 [35]: > 100 µM (inactive)
- GI50 [36]: > 100 µM (inactive)
- GI50 [37]: > 100 µM (inactive)
- GI50 [38]: > 100 µM (inactive)
- GI50 [39]: > 100 µM (inactive)
- GI50 [40]: > 100 µM (inactive)
- GI50 [41]: > 100 µM (inactive)
- GI50 [42]: > 100 µM (inactive)
- GI50 [43]: > 100 µM (inactive)
- GI50 [44]: > 100 µM (inactive)
- GI50 [45]: > 100 µM (inactive)
- GI50 [46]: > 100 µM (inactive)
- GI50 [47]: > 100 µM (inactive)
- GI50 [48]: > 100 µM (inactive)
- GI50 [49]: > 100 µM (inactive)
- GI50 [50]: > 100 µM (inactive)
- GI50 [51]: > 100 µM (inactive)
- GI50 [52]: 35.9 µM (inactive)
- GI50 [53]: > 100 µM (inactive)
- GI50 [54]: > 100 µM (inactive)
- GI50 [55]: > 100 µM (inactive)
- GI50 [56]: 53 µM (inactive)
- GI50 [57]: > 100 µM (inactive)

Structure (SMILES): CCOC(=O)/C(C#N)=C\c1ccc(N(CCC(=O)O)CCC(=O)O)c(I)c1
- GI50 [1]: > 10 µM (inactive)
- GI50 [2]: > 10 µM (inactive)
- GI50 [3]: > 10 µM (inactive)
- GI50 [4]: > 10 µM (inactive)
- GI50 [5]: > 10 µM (inactive)
- GI50 [6]: > 10 µM (inactive)
- GI50 [7]: > 10 µM (inactive)
- GI50 [8]: > 10 µM (inactive)
- GI50 [9]: > 10 µM (inactive)
- GI50 [10]: > 10 µM (inactive)
- GI50 [11]: > 10 µM (inactive)
- GI50 [12]: > 10 µM
- GI50 [13]: > 10 µM (inactive)
- GI50 [14]: > 10 µM (inactive)
- GI50 [15]: > 10 µM (inactive)
- GI50 [16]: > 10 µM (inactive)
- GI50 [17]: > 10 µM (inactive)
- GI50 [18]: > 10 µM (inactive)
- GI50 [19]: > 10 µM (inactive)
- GI50 [20]: > 10 µM (inactive)
- GI50 [21]: > 10 µM (inactive)
- GI50 [22]: > 10 µM (inactive)
- GI50 [23]: > 10 µM (inactive)
- GI50 [24]: > 10 µM (inactive)
- GI50 [25]: > 10 µM (inactive)
- GI50 [26]: > 10 µM (inactive)
- GI50 [27]: > 10 µM (inactive)
- GI50 [28]: > 10 µM (inactive)
- GI50 [29]: > 10 µM (inactive)
- GI50 [30]: > 10 µM (inactive)
- GI50 [31]: > 10 µM (inactive)
- GI50 [58]: > 10 µM (inactive)
- GI50 [32]: > 10 µM (inactive)
- GI50 [34]: > 10 µM (inactive)
- GI50 [36]: > 10 µM (inactive)
- GI50 [37]: > 10 µM (inactive)
- GI50 [38]: > 10 µM (inactive)
- GI50 [39]: > 10 µM (inactive)
- GI50 [40]: > 10 µM (inactive)
- GI50 [41]: > 10 µM (inactive)
- GI50 [42]: > 10 µM (inactive)
- GI50 [43]: > 10 µM (inactive)
- GI50 [45]: > 10 µM (inactive)
- GI50 [46]: > 10 µM (inactive)
- GI50 [47]: > 10 µM (inactive)
- GI50 [48]: > 10 µM (inactive)
- GI50 [49]: > 10 µM (inactive)
- GI50 [50]: > 10 µM (inactive)
- GI50 [51]: > 10 µM (inactive)
- GI50 [52]: > 10 µM (inactive)
- GI50 [53]: > 10 µM (inactive)
- GI50 [55]: > 10 µM (inactive)
- GI50 [56]: > 10 µM (inactive)
- GI50 [57]: > 10 µM (inactive)
